Assay results published in US20250171452A1 (Viscient Bio, Inc., priority 2022, published 2025).
Where a name gives a salt, the structure may show the parent alone.

Biological target: IDO2 (Homo sapiens (Human), UniProt Q6ZQW0)
Experiment: Cellular IDO2 assay, doxycycline and 5-methoxy-L-tryptophan medium, colorimetric
Format: cell-based
Settings: cellular level, 72 h incubation, signal at 480 nm
Method: IDO2 inhibition at the cellular level was evaluated in vitro using the following procedure.
Using cell culture medium, the volume of the suspension was adjusted to achieve a cell concentration of 20,000 cells/well (90 uL/well).
5-Methoxy-L-tryptophan powder was dissolved in the culture medium to a concentration of 10 mM, then filtered and sterilized with a 0.22 um filter. Doxycycline powder was dissolved in ddH2O to a concentration of 100 ug/ml, then filtered and sterilized with a 0.22 um filter. 5-aminolevulinic acid powder was dissolved in ddH2O to a concentration of 400 mM, then filtered and sterilized with a 0.22 um filter. A 2× Assay medium was then by diluting the doxycycline (from 100 ug/ml to 2 ug/ml) and 5-Methoxy-L-tryptophan (from 10 mM to 5 mM) in culture medium. The 5-aminolevulinic acid solution was also added to the solution (diluting the concentration from 400 mM to 2 mM) to get a 2× working solution.
After incubation, plates and reagents were allows to equilibrate to room temperature. […] Trichloroacetic acid powder was dissolved in ddH2O to prepare 6.1N trichloroacetic acid. […] The plates were incubated at 55° C. for 40 minutes, and then centrifuged for 10 min at 2500 rpm. […] Measurement of the signal was performed using Envision at 480 nm. Throughout the foregoing process, care was taken to prevent exposure to light.

Chain of IDO2 (Q6ZQW0 whole entry, species assumed): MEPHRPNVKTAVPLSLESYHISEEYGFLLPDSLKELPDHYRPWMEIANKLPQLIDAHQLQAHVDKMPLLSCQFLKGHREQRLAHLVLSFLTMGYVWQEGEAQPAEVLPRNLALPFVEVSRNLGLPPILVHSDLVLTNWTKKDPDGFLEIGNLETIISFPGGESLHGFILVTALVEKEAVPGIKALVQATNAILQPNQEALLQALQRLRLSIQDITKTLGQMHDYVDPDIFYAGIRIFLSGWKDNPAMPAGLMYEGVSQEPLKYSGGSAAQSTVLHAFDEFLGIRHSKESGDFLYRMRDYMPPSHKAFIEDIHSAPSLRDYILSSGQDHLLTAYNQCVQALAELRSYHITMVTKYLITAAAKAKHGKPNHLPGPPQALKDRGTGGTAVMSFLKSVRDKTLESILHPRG

**Q.** How did the IC50 turn out when `N#Cc1ccc2c(c1)C(=O)c1nc3cc(F)cc(F)c3c(=O)n1-2` [Compound 114] was run?
**A.** 0.05 to 0.5 µM

**Q.** `O=C1c2cc(F)ccc2-n2c1nc1c(NCc3ccc(F)cc3)cccc1c2=O` [Compound 115, 8-Fluoro-4-((4-fluorobenzyl)amino)indolo[2,1-b]quinazoline-6,12-dione] was tested. Which IC50 did it give?
**A.** 0.05 to 0.5 µM

**Q.** Which IC50 does the source give for `NS(=O)(=O)c1ccc2c(c1)C(=O)c1nc3c(Cl)cccc3c(=O)n1-2` [Compound 116] here?
**A.** 0.05 to 0.5 µM

**Q.** With `O=C1c2cc(SCc3ccccc3)ccc2-n2c1nc1c(Cl)cccc1c2=O` [Compound 117] as the molecule, how does the IC50 read?
**A.** < 0.05 µM

**Q.** `N#Cc1ccc2c(c1)C(=O)c1nc3c(Nc4ccc(F)cc4)cccc3c(=O)n1-2` [Compound 119, 4-((4-Fluorophenyl)amino)-6,12-dioxo-6,12-dihydroindolo[2,1-b]quinazoline-8-carbonitrile] was tested. Which IC50 did it give?
**A.** < 0.05 µM

**Q.** With `O=C1c2cc(SCc3ccccc3)ccc2-n2c1nc1c(Nc3ccc(F)cc3)cccc1c2=O` [Compound 120, 8-(Benzylthio)-4-((4-fluorophenyl)amino)indolo[2,1-b]quinazoline-6,12-dione] as the molecule, how does the IC50 read?
**A.** > 0.5 µM

**Q.** With `O=C1c2cc(Br)ccc2-n2c1nc1c(Nc3ccc(F)cc3)cccc1c2=O` [Compound 121, 8-bromo-4-((4-fluorophenyl)amino)indolo[2,1-b]quinazoline-6,12-dione] as the molecule, how does the IC50 read?
**A.** 0.05 to 0.5 µM

**Q.** Which IC50 does the source give for `O=C1c2cc(F)ccc2-n2c1nc1c(OCc3ccc(F)cc3)cccc1c2=O` [Compound 124] here?
**A.** 0.05 to 0.5 µM

**Q.** Which IC50 does the source give for `O=C1c2cc(F)ccc2-n2c1nc1c(Nc3ccc(F)cc3)cccc1c2=O` [Compound 125] here?
**A.** 0.05 to 0.5 µM

**Q.** With `CN(C)Cc1ccc2nc3n(c(=O)c2c1)-c1ccc(S(=O)(=O)Cc2ccccc2)cc1C3=O` [Compound 127] as the molecule, how does the IC50 read?
**A.** < 0.05 µM

**Q.** Which IC50 does the source give for `CN(C)Cc1ccc2nc3n(c(=O)c2c1)-c1ccc(Br)cc1C3=O` [Compound 128] here?
**A.** < 0.05 µM

**Q.** Which IC50 does the source give for `CC1(CCC(=O)Nc2ccc3nc4n(c(=O)c3c2)-c2ccc(F)cc2C4=O)N=N1` [Compound 129] here?
**A.** < 0.05 µM

**Q.** `CN(C)Cc1ccc2nc3n(c(=O)c2c1)-c1ccc(SCc2ccccc2)cc1C3=O` [Compound 130] was tested. Which IC50 did it give?
**A.** > 0.5 µM

**Q.** Which IC50 does the source give for `CO/N=C1/c2cc(C#N)ccc2-n2c1nc1ccc(CN3CCOCC3)cc1c2=O` [Compound 131, (Z)-6-(methoxyimino)-2-(morpholinomethyl)-12-oxo-6,12-dihydroindolo[2,1-b]quinazoline-8-carbonitrile] here?
**A.** < 0.05 µM

**Q.** Which IC50 does the source give for `CO/N=C1/c2cc(F)ccc2-n2c1nc1ccc(-n3ccnc3)cc1c2=O` [Compound 132] here?
**A.** < 0.05 µM

**Q.** `O=C1c2cc(F)ccc2-n2c1nc1ccc(CBr)cc1c2=O` [Compound 133, 2-(bromomethyl)-8-fluoroindolo[2,1-b]quinazoline-6,12-dione] was tested. Which IC50 did it give?
**A.** < 0.05 µM

**Q.** For `CO/N=C1/c2cc(F)ccc2-n2c1nc1ccc(CNc3ccccn3)cc1c2=O` [Compound 134, (Z)-8-fluoro-6-(methoxyimino)-2-((pyridin-2-ylamino)methyl)indolo[2,1-b]quinazolin-12(6H)-one], which IC50 is on record?
**A.** 0.05 to 0.5 µM

**Q.** With `COc1cc(OC)nc(Nc2ccc3nc4n(c(=O)c3c2)-c2ccc(F)cc2C4=O)n1` [Compound 135, 2-((4,6-dimethoxypyrimidin-2-yl)amino)-8-fluoroindolo[2,1-b]quinazoline-6,12-dione] as the molecule, how does the IC50 read?
**A.** < 0.05 µM

**Q.** `N#Cc1ccc2c(c1)C(=O)c1nc3ccc(CN4CCOCC4)cc3c(=O)n1-2` [Compound 136, 2-(morpholinomethyl)-6,12-dioxo-6,12-dihydroindolo[2,1-b]quinazoline-8-carbonitrile] was tested. Which IC50 did it give?
**A.** < 0.05 µM

**Q.** With `O=C1c2cc(F)ccc2-n2c1nc1ccc(-n3ccnc3)cc1c2=O` [Compound 137, 8-fluoro-2-(1H-imidazol-1-yl)indolo[2,1-b]quinazoline-6,12-dione] as the molecule, how does the IC50 read?
**A.** < 0.05 µM

**Q.** How did the IC50 turn out when `CO/N=C1/c2cc(F)ccc2-n2c1nc1ccc(CN(C)C)cc1c2=O` [Compound 138, (Z)-2-((dimethylamino)methyl)-8-fluoro-6-(methoxyimino)indolo[2,1-b]quinazolin-12(6H)-one Trifluoroacetate Salt] was run?
**A.** 0.05 to 0.5 µM
